Experimental data taken from US20250243189A1, “HERBICIDAL IMIDAZOLE-CONTAINING COMPOUNDS” (SYNGENTA CROP PROTECTION AG, priority 2022, published 2025).

Key:
Type in all cases: in vivo
Settings in all cases: 250 g/ha, evaluated after 13 days, five-point scale
AMAPA [1] = experiment: Post-emergence herbicidal glasshouse test
Protocol: [Worded in the source for another organism; this organism is reported under the same test.] (§1) Seeds of a variety of test species are sown in standard soil in pots Amaranthus retoflexus (AMARE), Echinochloa crus-galli (ECHCG), Setaria faberi (SETFA)). After cultivation for one day (pre-emergence) or after 8 days cultivation (post-emergence) under controlled conditions in a glasshouse (at 24/16° C., day/night; 14 hours light; 65% humidity), the plants are sprayed with an aqueous spray solution derived from the formulation of the technical active ingredient in acetone/water (50:50) solution containing 0.5% Tween 20 (polyoxyethelyene sorbitan monolaurate, CAS RN 9005-64-5). Compounds are applied at 250 g/ha unless otherwise stated. The test plants are then grown in a glasshouse under controlled conditions in a glasshouse (at 24/16° C., day/night; 14 hours light; 65% humidity) and watered twice daily. After 13 days for pre and post-emergence, the test is evaluated for the percentage damage caused to the plant. The biological activities are shown in the following table on a five-point scale (5=81-100%; 4=61-80%; 3=41-60%; 2=21-40%; 1=0-20%).

[2] = tested on: Echinochloa crus-galli (ECHCG); experiment: Post-emergence herbicidal glasshouse test
Protocol: as §1

Setaria faberi (SETFA) [3] = experiment: Post-emergence herbicidal glasshouse test
Protocol: as §1

[4] = tested on: Amaranthus retoflexus (AMARE); experiment: Post-emergence herbicidal glasshouse test
Protocol: as §1

IPOHE [5] = experiment: Post-emergence herbicidal glasshouse test
Protocol: as §1

AMAPA [6] = experiment: Pre-emergence herbicidal glasshouse test
Protocol: [Worded in the source for another organism; this organism is reported under the same test.] as §1

[7] = tested on: Echinochloa crus-galli (ECHCG); experiment: Pre-emergence herbicidal glasshouse test
Protocol: as §1

Setaria faberi (SETFA) [8] = experiment: Pre-emergence herbicidal glasshouse test
Protocol: as §1

[9] = tested on: Amaranthus retoflexus (AMARE); experiment: Pre-emergence herbicidal glasshouse test
Protocol: as §1

IPOHE [10] = experiment: Pre-emergence herbicidal glasshouse test
Protocol: as §1

SMILES | percentage damage caused to the plant, AMAPA (AMAPA [1]) | percentage damage caused to the plant, ECHCG [2] | percentage damage caused to the plant, SETFA (Setaria faberi (SETFA) [3]) | percentage damage caused to the plant, AMARE [4] | percentage damage caused to the plant, IPOHE (IPOHE [5]) | percentage damage caused to the plant, AMAPA (AMAPA [6]) | percentage damage caused to the plant, ECHCG [7] | percentage damage caused to the plant, SETFA (Setaria faberi (SETFA) [8]) | percentage damage caused to the plant, AMARE [9] | percentage damage caused to the plant, IPOHE (IPOHE [10])
FC(F)(F)c1cn(Cc2ncc(Cl)cn2)c(-c2ccc(Cl)s2)n1 [Compound 1.001, 5-chloro-2-[[2-(5-chloro-2-thienyl)-4-(trifluoromethyl)imidazol-1-yl]methyl]pyrimidine] | 5 (5=81-100%) | 5 (5=81-100%) | 5 (5=81-100%) | 5 (5=81-100%) | 4 (4=61-80%) | 5 (5=81-100%) | 5 (5=81-100%) | 5 (5=81-100%) | 5 (5=81-100%) | 5 (5=81-100%)
Cn1nccc1-c1nc(C(F)(F)F)cn1Cc1ncc(Cl)cn1 [Compound 1.005] | 5 (5=81-100%) | 5 (5=81-100%) | 5 (5=81-100%) | 5 (5=81-100%) | 4 (4=61-80%) | 5 (5=81-100%) | 5 (5=81-100%) | 5 (5=81-100%) | 5 (5=81-100%) | 5 (5=81-100%)
Cn1ccnc1-c1nc(C(F)(F)F)cn1Cc1ncc(Cl)cn1 [Compound 1.006] | 1 (1=0-20%) | 1 (1=0-20%) | 1 (1=0-20%) | 1 (1=0-20%) | 1 (1=0-20%) | 1 (1=0-20%) | 1 (1=0-20%) | 1 (1=0-20%) | 1 (1=0-20%) | 1 (1=0-20%)
FC(F)(F)c1cn(Cc2ncc(Cl)cn2)c(-c2cnc(Cl)s2)n1 [Compound 1.008] | 5 (5=81-100%) | 5 (5=81-100%) | 5 (5=81-100%) | 5 (5=81-100%) | 4 (4=61-80%) | 5 (5=81-100%) | 5 (5=81-100%) | 5 (5=81-100%) | 5 (5=81-100%) | 5 (5=81-100%)
Cc1c(-c2nc(C(F)(F)F)cn2Cc2ncc(Cl)cn2)cnn1C [Compound 1.012, 5-chloro-2-[[2-(1,5-dimethylpyrazol-4-yl)-4-(trifluoromethyl)imidazol-1-yl]methyl]pyrimidine] | 3 (3=41-60%) | 1 (1=0-20%) | 1 (1=0-20%) | 2 (2=21-40%) | 3 (3=41-60%) | 5 (5=81-100%) | 1 (1=0-20%) | 1 (1=0-20%) | 3 (3=41-60%) | 5 (5=81-100%)
Cn1cc(-c2nc(C(F)(F)F)cn2Cc2ncc(Cl)cn2)cn1 [Compound 1.014] | 3 (3=41-60%) | 2 (2=21-40%) | 2 (2=21-40%) | 3 (3=41-60%) | 3 (3=41-60%) | 5 (5=81-100%) | 4 (4=61-80%) | 4 (4=61-80%) | 4 (4=61-80%) | 5 (5=81-100%)
FC(F)(F)c1cn(Cc2ncc(Cl)cn2)c(-c2ccco2)n1 [Compound 1.016] | 1 (1=0-20%) | 1 (1=0-20%) | 1 (1=0-20%) | 1 (1=0-20%) | 1 (1=0-20%) | 1 (1=0-20%) | 1 (1=0-20%) | 1 (1=0-20%) | 1 (1=0-20%) | 1 (1=0-20%)
Cc1cc(-c2nc(C(F)(F)F)cn2Cc2ncc(Cl)cn2)n(C)n1 [Compound 1.024] | 5 (5=81-100%) | 5 (5=81-100%) | 5 (5=81-100%) | 5 (5=81-100%) | 5 (5=81-100%) | 5 (5=81-100%) | 5 (5=81-100%) | 5 (5=81-100%) | 5 (5=81-100%) | 5 (5=81-100%)
FC(F)(F)c1cn(Cc2ncc(Cl)cn2)c(-c2ccsc2Cl)n1 [Compound 1.025] | 3 (3=41-60%) | 4 (4=61-80%) | 4 (4=61-80%) | 4 (4=61-80%) | 3 (3=41-60%) | 5 (5=81-100%) | 5 (5=81-100%) | 5 (5=81-100%) | 5 (5=81-100%) | 4 (4=61-80%)
Cc1csc(-c2nc(C(F)(F)F)cn2Cc2ncc(Cl)cn2)c1 [Compound 1.029] | 5 (5=81-100%) | 4 (4=61-80%) | 4 (4=61-80%) | 5 (5=81-100%) | 2 (2=21-40%) | 5 (5=81-100%) | 5 (5=81-100%) | 5 (5=81-100%) | 5 (5=81-100%) | 1 (1=0-20%)
Cc1cnc(Cn2cc(C(F)(F)F)nc2-c2ccc(Cl)s2)nc1 [Compound 1.072] | 5 (5=81-100%) | 5 (5=81-100%) | – | 5 (5=81-100%) | 4 (4=61-80%) | 5 (5=81-100%) | 5 (5=81-100%) | – | 5 (5=81-100%) | 5 (5=81-100%)
